Measurements from US7223836B2, “Peptides for chlamydophila pneumoniae vaccine and diagnosis” (The United States of America as represented by the …, priority 2001, dated 2007).
No end group written: not given here.

Legend:
8A6 mAb = assay: competitive inhibition ELISA: peptide blocks 8A6 mAb binding to sonicated C. pneumoniae; design: species or system murine
Experimental: To perform these experiments, an ELISA was utilized in which mAb and inhibitor (phage) were premixed, incubated for 2 hours, and then plated onto the microtiter plates with renographin purified, sonicated whole-cell C. pneumoniae.
Several methods were used to determine binding specificity. […] The best synthetic peptides were selected by competing the peptide against the respective native C. pneumoniae lysate for binding to the target mAb.

[1] = immunization of naive rabbits, antiserum ELISA; assay type: in vivo; details: subcutaneous, 50–200 μg with aluminum hydroxide, boosters
Experimental: (§1) In order to identify immunologically reactive C. pneumoniae peptides that can be used in the development of a C. pneumoniae vaccine, naive mice and rabbits were immunized with various C. pneumoniae polypeptides. An exemplary protocol is as follows: 50–200 μg of CP-8A6-B1 (SEQ ID NO:4) was mixed with 1 mg of aluminum hydroxide, a less inflammatory alternative to Freund's adjuvant. Rabbits were injected subcutaneously at multiple sites with 0.05 ml of inoculum, whereas mice were immunized intraperitoneally with no more than 0.2 ml of inoculum. At least 2–3 weeks following the initial immunization, the mice and rabbits were given their first booster immunizations. Mice were given subsequent boosters at two week intervals for up to 6 total injections, whereas rabbits were typically injected every 4–6 weeks. […] Briefly, after the antigen was immobilized, the bound peptide was tested with serial dilutions of the mouse and rabbit antisera and was detected with a goat anti-mouse IgG or a goat anti-rabbit IgG heavy plus light chain antibody horseradish peroxidase conjugate (Pierce Scientific). […] Absorbance at 490 nm was recorded with an enzyme immunoassay reader (Bio-Tek Instruments, Burlington, Vt.). […] Wells with optical density readings greater than 0.2 units at 490 nm were indicative of an immunologically reactive antiserum.

[2] = tested on: 8A6 mAb binding to fixed, cultured C. pneumoniae cells (RBs and EBs); assay: competitive inhibition indirect IFA; design: species or system murine; details: serially diluted peptide
Experimental: The indirect immunofluorescence assay (IFA) was performed as described previously (Storey et al., 1993 and Wong Skelton Chan, 1992) with modifications. Antibiotic-free Buffalo African Green monkey cells were seeded into 1 dram shell vials or 24-well tissue culture trays containing 12 mm cover slips at a density of 3.0×10^5 cells/mL. Cells were incubated for 24 hours at 37° C. and checked for confluency. Cell cultures were infected by the addition of C. pneumoniae followed by centrifugation at 3000× g. Inclusions were counted using the Pathfinder® Chlamydia Culture Confirmation System staining kit (Sanofi Diagnostics Pasteur, Redmond, Wash.) as per manufacturer specifications. The 8A6 mAb was used as previously described (Wong et al. 1992) for detection of C. pneumoniae inclusions and to determine species specificity.
A competitive inhibition IFA assay was performed using the previously described IFA assay with modification. […]
Due to the subjective nature of IFA tests, it is difficult to standardize a competitive inhibition to obtain fluorescence measures. Instead, slides were scored from 1 to 4 such that a value of 3+ equals the endpoint titer and changes due to inhibition were scored empirically from comparison with control slides. […]

[3] = immunization of naive mice, antiserum ELISA; assay type: in vivo; details: intraperitoneal, 50–200 μg with aluminum hydroxide, boosters
Experimental: as §1

[4] = competitive inhibition ELISA, binding of 8A6 mAb to sonicated C. pneumoniae fixed to solid phase

Sequence	IC50 (50% Inhibiting Concentration) (8A6 mAb; [4])	percent inhibition (8A6 mAb; [4])	immune response (antiserum reactivity by ELISA) [1]	percent inhibition (8A6 mAb; at 50 μg/mL of peptide)	peptide concentration down to which any observable binding of 8A6 mAb was completely blocked [2]	immune response (antiserum reactivity by ELISA) [3]
AFAQAPTHQLSL [CP-8A6-B3, AFAQAPTHQLSL]	6.46 µg/mL	67.8%	–	–	–	–
ESNPVDGAHLSL [CP-8A6-B10A, ESNPVDGAHLSL]	18.90 µg/mL	57.4%	–	–	–	–
HDEGRQIIQFEE [CP-8A6-A2, HDEGRQIIQFEE]	18.29 µg/mL	83.5%	–	–	–	–
LRNCEQDFFTLN [CP-8A6-A3, LRNCEQDFFTLN]	18.54 µg/mL	95.1%	–	–	–	–
PNEPDDLALMRIIRI [CP-8A6-B1, PNEPDDLALMRIIRI]	2.93 µg/mL	95.44%	produced an immune response	95.44%	100 ng/mL	produced an immune response
RRLGRQTYDNES [CP-8A6-A1, RRLGRQTYDNES]	4.82 µg/mL	84.5%	–	–	–	–
